“And” between values parts separate entries of the source, which are not always exact repeats. Equal values may be shown once.
Assays:
[1] = tested on: influenza virus A/WSN/33 (H1N1); assay: organism not typed; type: cell-based; details: MDCK, 72 h; for EC50: read-out: Cytopathic Effect Assay (A/WSN/33, H1N1) EC50; for inhibition at 12.5 µM / inhibition at 25 µM / inhibition at 50 µM / inhibition at 100 µM: H1N1|WSN, read-out: Antiviral activity in CPE assay
[2] = tested on: influenza virus A/WSN/33 (H1N1); assay: Plaque inhibition assay in MDCK cells; type: cell-based; details: MDCK, read-out: Plaque Inhibition Assay (A/WSN/33, H1N1) Inhibition Rate
[3] = in vitro; type: cell-based, canine; details: dog
Experimental: (§1) The 3-(4,5-dimethylthiazol-2-yl)-2,5-diphenyltetrazolium bromide (MTT) method was performed to assess the cytotoxicity of target compounds in MDCK cells and HEK293T cells. Firstly, MDCK cells or HEK293T cells were seeded into the 96-well plate. Then, the media containing test compounds replaced the growth media after 48 h. Incubate MDCK cells or HEK293T cells with test compounds for 72 h at 37 °C in a humidified 5% CO2 incubator. Later, MTT solution (5 mg/mL in PBS) was added into each well and plates were incubated for 4 h at 37 °C. Then, add a solubilization solution to lyse cells. Finally, absorbance was read at 620 nm using an ELISA plate reader (Tecan Sunrise) after 3 h of further incubation at 37 °C. We set the values obtained from the wells treated with only DMSO as 100% of viable cells.

[4] = tested on: MDCK cells; assay: in vitro; type: cell-based, canine; details: dog, 72 h
Experimental: as §1

[5] = in vitro; type: cell-based; details: human
Experimental: as §1

[6] = tested on: HEK293T cells; assay: in vitro; type: cell-based; details: human, 72 h
Experimental: as §1

[7] = tested on: PA-PB1 endonuclease; set-up: method as in supplement 1-7; details: training and test set compounds collected from literature; ref supplement 1-7; read-out: IC50 value Experimental (PA-PB1 endonuclease inhibitors); cited from earlier work

Row | SMILES | melting point [°C] | EC50 [1] [µM] | inhibition at 12.5 µM [1] [%] | inhibition at 25 µM [1] [%] | inhibition at 50 µM [1] [%] | inhibition at 100 µM [1] [%] | CC50 at 72 h [3] [µM] | MDCK cells survival rate ([4]; 12.5 µmol·L−1) [%] | MDCK cells survival rate ([4]; 25 µmol·L−1) [%] | MDCK cells survival rate ([4]; 50 µmol·L−1) [%] | MDCK cells survival rate ([4]; 100 µmol·L−1) [%] | CC50 at 72 h [5] [µM] | HEK293T cells survival rate ([6]; 3.125 µmol·L−1) [%] | HEK293T cells survival rate ([6]; 6.25 µmol·L−1) [%] | HEK293T cells survival rate ([6]; 12.5 µmol·L−1) [%] | HEK293T cells survival rate ([6]; 25 µmol·L−1) [%] | HEK293T cells survival rate ([6]; 50 µmol·L−1) [%] | HEK293T cells survival rate ([6]; 100 µmol·L−1) [%] | IC50 [7] | also measured
1 | O=C(O)c1ccc(Nc2ccnc3cc(C(F)(F)F)ccc23)cc1 [4-{[7-(Trifluoromethyl)quinolin-4-yl]amino}benzoic acid] | 323.7 to 324.9 | 22.9 | – | – | – | – | – | – | – | – | – | – | – | – | – | – | – | – | – | inhibition at 50 µM ([2]; concentration 50 µM): 50%
2 | CCCNC(=O)c1ccc(Nc2ccnc3cc(C(F)(F)F)ccc23)cc1 [Compound G03, N-Propyl-4-{[7-(trifluoromethyl)quinolin-4-yl]amino}benzamide] | 242.5 to 243.4 | 10 ± 1.9 | 54.9 ± 4.62 | 56.7 ± 11.7 | 70.3 ± 9.33 | 78.7 ± 8.35 | > 100 | 107.23±8.32 | 128.70±3.04 | 132.67±1.65 | 144.22±4.46 | > 100 | 98.97±9.80 | 89.61±8.87 | 97.78±4.47 | 91.10±7.09 | 84.12±2.84 | 74.22±4.02 | – | inhibition at 100 µM ([2]; concentration 100 µM): < 10%
3 | CCN(CC)CCCNC(=O)c1ccc(Nc2ccnc3cc(C(F)(F)F)ccc23)cc1 [Compound G06, N-[3-(Diethylamino)propyl]-4-{[7-(trifluoromethyl)quinolin-4-yl]amino}benzamide] | 216.5 to 219.3 | > 100 | 16.7 ± 1.15 | 13.1 ± 0.69 | 12.8 ± 0.69 | 11.2 ± 0.23 | > 100 | 95.22±3.96 | 96.67±0.91 | 84.01±5.28 | 79.75±2.72 | > 100 | 107.15±2.76 | 90.35±0.85 | 96.59±4.26 | 85.50±2.49 | 85.25±2.63 | 76.47±9.94 | – | inhibition at 12.5 µM ([2]; concentration 12.5 µM): < 10%
4 | O=C(c1ccc(Nc2ccnc3cc(C(F)(F)F)ccc23)cc1)N1CCN(c2cccc(C(F)(F)F)c2)CC1 [Compound G16, {4-[3-(Trifluoromethyl)phenyl]piperazin-1-yl}{4-{[7-(trifluoromethyl)quinolin-4-yl]amino}phenyl}methanone] | 217 to 218.5 | > 100 | 15.7 ± 1.33 | 36.8 ± 3.16 | 33.8 ± 2.71 | 45.7 ± 2.09 | > 100 | 83.03±1.26 | 85.52±2.56 | 92.23±7.81 | 103.91±10.21 | > 100 | 89.31±3.06 | 79.52±2.87 | 80.26±3.54 | 75.35±5.51 | 70.68±3.36 | 66.51±2.68 | – | –
5 | Cc1cc(-c2ccccc2)n2nc(C(=O)Nc3sc4c(c3C(N)=O)CCCCC4)nc2n1 [Compound H01] | – | – | – | – | – | – | – | – | – | – | – | – | – | – | – | – | – | – | 1.1 µM | –
6 | NC(=O)c1c(NC(=O)c2nc3nc(-c4ccccc4)cc(C(F)(F)F)n3n2)sc2c1CCCC2 [Compound H02, N-(3-carbamoyl-4,5,6,7-tetrahydrobenzo[b]thiophen-2-yl)-5-phenyl-7-(trifluoromethyl)-[1,2, 4]triazolo[1,5-a]pyrimidine-2-carboxamide] | – | – | – | – | – | – | – | – | – | – | – | – | – | – | – | – | – | – | 7.5 µM and 6.2 µM | –
7 | Cc1cc(-c2ccccc2)n2nc(C(=O)Nc3sc4c(c3C(N)=O)CCC4)nc2n1 [Compound H03] | – | – | – | – | – | – | – | – | – | – | – | – | – | – | – | – | – | – | 6.2 µM and 7.5 µM | –
8 | CCC(C)NC(=O)c1ccccc1NC(=O)c1cccc(S(=O)(=O)Nc2ccccc2)c1 (stereo not shown) [Compound H04] | – | – | – | – | – | – | – | – | – | – | – | – | – | – | – | – | – | – | 9.2 µM | –
9 | O=C1c2ccccc2C(=O)c2c1cc(Nc1ccccc1)c1nsnc21 [Compound H10] | – | – | – | – | – | – | – | – | – | – | – | – | – | – | – | – | – | – | 9.5 µM | –

From paper PMC9181126, “Design, Synthesis, Molecular Docking Analysis and Biological Evaluations of 4-[(Quinolin-4-yl)amino]benzamide Derivatives as Novel Anti-Influenza Virus Agents” (International Journal of Molecular Sciences, 2022)
